From patent US5438064A, “Derivatives of 4-anilinoquinoline-3-carboxamide as analgesic agents” (American Home Products Corporation, priority 1991, dated 1995)
pIC50: −log10 of the molar value. Counter-ions that a name gives are not always drawn.

What was measured:
[1] = target: T1, BK2 receptor sites in guinea pig ileum (Cavia porcellus, UniProt O70526); experiment: Bradykinin Receptor Binding Assay (competition with 3H-bradykinin for BK2 receptor sites in guinea pig ileum); settings: 80 pM 3H-BK, guinea pig ileum homogenate; for pIC50: 90 min, 25° C., pH 6.8, read-out: Bradykinin Binding in G.P. ileum, IC50; for inhibition at 10 µM: read-out: Bradykinin Binding in G.P. ileum, % inhibition at 10 μM
T1 construct: The tissue is cut into small pieces and homogenized in 20 volumes of homogenization buffer; from tissue; host or cells: guinea pig distal ileum, membrane homogenate (Hartley strain, male, adult; animals from Charles River)
T1 sequence (O70526 1-372): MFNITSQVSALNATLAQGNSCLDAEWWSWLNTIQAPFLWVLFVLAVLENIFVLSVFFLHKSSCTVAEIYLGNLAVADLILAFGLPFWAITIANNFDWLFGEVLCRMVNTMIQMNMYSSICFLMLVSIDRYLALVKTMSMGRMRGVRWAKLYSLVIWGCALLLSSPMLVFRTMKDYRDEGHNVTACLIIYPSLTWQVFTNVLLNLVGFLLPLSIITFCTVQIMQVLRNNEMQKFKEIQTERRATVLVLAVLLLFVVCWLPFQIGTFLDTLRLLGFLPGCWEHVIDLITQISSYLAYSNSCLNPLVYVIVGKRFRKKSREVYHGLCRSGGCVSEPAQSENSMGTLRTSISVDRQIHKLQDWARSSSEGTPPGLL
Experimental: 1. Bradykinin Receptor Binding Assay
The following procedure is used to identify compounds which compete specifically with triturated bradykinin (^3 H-BK) for BK2 receptor sites in guinea pig ileum.
The distal portion of adult, male guinea pig (Hartley strain, 350-500 g, Charles River) ileum is removed and placed in ice cold homogenization buffer [[…] N-tris (hydroxymethyl)methyl-2-aminoethane sulfonic acid (TES), 1 mM 1, 10-phenanthroline, adjusted to pH 6.8 with ammonium hydroxide].
The contents of the ileal lumen are rinsed out with cold homogenization buffer. The tissue is cut into small pieces and homogenized in 20 volumes of homogenization buffer 3 times of 10 seconds duration using a Brinkman Polytron homogenizer equipped with a PTA 10 TS generator at setting 5.
The homogenate is fillered through a surgical gauze sponge and centrifuged at 50,000 × g for 20 minutes at 4° C. The supernatant fluid is discarded and the homogenization and centrifugation procedures are repeated. After discarding the supernatant fluid, the final pellet is resuspended in 40 volumes of assay buffer (25 mM TES, pH 6.8, 1 mM 1,10-phenanthroline, 1 mM dithiothreitol, 2 μM captopril, 140 μg/ml bacitracin and 0.1% bovine serum albumin (BSA)). The homogenate is filtered once more through a surgical gauze sponge and kept on ice until used. The assay is performed using only polypropylene pipet tips and polypropylene test tubes. Each tube receives 100 μl of 800 pM ^3 H-BK, 100 μl of the test compound solution […] or vehicle (assay buffer), and 100 μl of 25 mg/ml tissue homogenate in a total volume of 1 ml. The final concentration of 3H-BK is 80 pM. The final tissue concentration is 2.5 mg/ml. Compounds are screened at 100 μM. Compounds which are not soluble in water are first solubilized in DMSO and then diluted 1:100 in the assay buffer. Addition of 100 μl of this sample to the assay will yield a final DMSO concentration of 0.1% which has been shown not to affect the binding assay. Nonspecific binding is determined in the presence of 1 μM unlabeled bradykinin. All determinmions are made in triplicate. Three 100 μl aliquots of the 800 pM 3H-BK working solution are added directly to scintillation vials to determine the total added radioactivity.
The tubes are incubated for 90 minutes at 25° C. while being gently agitated on an orbital shaker. Bound ligand is separated from free ligand, using Whatman GF/B glass fiber filters (pretreated with 0.1% aqueous polyethyleneimine made neutral with HCl). A Brandel receptor binding harvester is used. Assay tubes and glass fiber filters are rinsed three times with 3 ml of cold physiological saline.
The filter discs are transferred to 20 ml scintillation vials. Ten ml of aqueous sample LSC cocktail (Aquassure, New England Nuclear) is added to each vial. After capping, the vials are agitated for 5 minutes on an orbital shaker. The samples are counted for ten minutes in a refrigerated liquid scintillation counter to obtain the following values: Bt (total binding), Bns (non-specific binding) and Bx (total binding in the presence of the test compound). From these values, control specific binding (C=Bt -Bns), specific binding in the presence of the test compound (D=Bx -Bns), percent of control (D/C ×100) and percent inhibition (1-D/C)×100 are calculated.
If 50% inhibition is obtained at the screening concentration, the compound is considered active and a dilution series (typically 1:3 serial dilutions of the test compound) is tested in the binding assay. After calculation of the percent of control of each dilution, the values are analyzed and the IC50 with its 95% confidence limits is determined.

[2] = tested on: bradykinin-induced writhing in mice; experiment: Bradykinin-induced Writhing in Mice; type: in vivo, mice (male CD-1); settings: for Bradykinin-induced writhing, % inhibition at 30 mg/kg i.p. / Bradykinin-induced writhing, % inhibition: mice
Experimental: 2. Bradykinin-induced Writhing in Mice
Male CD-1 Charles River mice (14-19g), fasted overnight but having free access to water, in groups of 10 (control and treated) are given an intraperitoneal (j.p.) injection of 1 mg/kg of prostaglandin PGE2 in phosphate buffered saline (10 μl/g) and after 20 minutes each mouse receives an i.p. injection of bradykinin (0.5 mg/kg in saline). The treatment group of mice receive a test compound either orally 1 hour prior to administration of bradykinin or i.p. 2 minutes prior to administration of bradykinin. Test compounds are given in saline if soluble or as a suspension in 0.5% Tween 80. The percent inhibition of writhing obtained is calculated as follows: [formula] where C is the mean number of writhes in the control group and D is the mean number of writhes in the drag group. If 30% inhibition or higher is observed with the screening dose, the test compound is considered active. Several logarithmically spaced doses will be tested and the ED50 determined by regression methods with inverse prediction.

**Q.** How did the pIC50 [1] turn out when COc1cccc2c(Nc3ccc(C(=O)NC4CCN(Cc5ccccc5)CC4)cc3)c(C(=O)NC3CCN(Cc4ccc(C(C)(C)C)cc4)CC3)cnc12 [Ex. 1, N-[1-[4-(1,1-Dimethylethyl)phenyl]methyl-4-piperidinyl]-8-methoxy-4-[[4-[[[1-(phenylmethyl) -4-piperidinyl]amino]carbonyl]phenyl]amino]-3-quinolinecarboxamide] was run?
**A.** 6.37

**Q.** For CCN(CC)C(=O)CCCCCN1CCC(NC(=O)c2cnc3c(OC)cccc3c2Nc2ccc(C(=O)NC3CCN(Cc4ccccc4)CC3)cc2)CC1 [Ex. 9, N-[1-[6-(Diethylamino)-6-oxohexyl]-4-piperidinyl]-8-methoxy-4-[[4-[[[1-(phenylmethyl)-4-piperidinyl]amino]carbonyl]-phenyl]amino]-3-quinolinecarboxamide], which “Bradykinin-induced writhing, % inhibition at 30 mg/kg i.p.” value [2] is on record?
**A.** 46%

**Q.** And the pIC50 [1]?
**A.** 5.59

**Q.** CC(=O)Nc1ccc(O)cc1 [Acetaminophen] was tested. Which “Bradykinin-induced writhing, % inhibition” value ([2]; 300 mg/kg p.o.) did it give?
**A.** 20%

**Q.** Which inhibition at 10 µM [1] does the source give for CCCCN1CCC(NCc2ccc(Nc3c(C(=O)NC4CCN(Cc5ccccc5)CC4)cnc4c(OC)cccc34)cc2)CC1 [Ex. 7, 4-[[4-[[(1-Butyl-4-piperidinyl)amino]methyl]phenyl]amino]-8-methoxy-N-[1-(phenyimethyl)-4-piperidinyl]-3-qinolinecarboxamide] here?
**A.** 50.5%

**Q.** With COc1cccc2c(Nc3ccc(C(=O)NC4CCN(Cc5ccccc5)CC4)cc3)c(C(=O)NC3CCN(CCc4ccccc4)CC3)cnc12 [Ex. 12, N-[1-(2-Phenylethyl)-4-piperidinyl]-8-methoxy-4-[[4-[[[1-(phenylmethyl)-4piperidinyl]amino]carbonyl]phenyl]amino]-3-quinolinecarboxamide] as the compound, how does the pIC50 [1] read?
**A.** 6.17

**Q.** COc1cccc2c(Nc3ccc(C(=O)NC4CCN(Cc5ccccc5)CC4)cc3)c(C(=O)NC3CCN(Cc4cccc(C(F)(F)F)c4)CC3)cnc12 [Ex. 16] was tested. Which pIC50 [1] did it give?
**A.** 6.60

**Q.** With COc1cccc2c(Nc3ccc(C(=O)NC4CCN(Cc5ccccc5)CC4)cc3)c(C(=O)N(C)C3CCN(C)CC3)cnc12 [Ex. 14] as the compound, how does the pIC50 [1] read?
**A.** 5.85

**Q.** With COc1cccc2c(Nc3ccc(C(=O)NC4CCN(Cc5ccccc5)CC4)cc3)c(C(=O)NC3CCN(Cc4cccc(Cl)c4)CC3)cnc12 [Ex. 2] as the compound, how does the pIC50 [1] read?
**A.** 7.10

**Q.** For CCCCN1CCC(N(Cc2ccc(Nc3c(C(=O)NC4CCN(Cc5ccccc5)CC4)cnc4c(OC)cccc34)cc2)C(=O)CCC)CC1 [Ex. 10], which inhibition at 10 µM [1] is on record?
**A.** 42.8%

**Q.** COc1cccc2c(Nc3ccc(C(=O)NC4CCN(Cc5ccccc5)CC4)cc3)c(C(=O)NC3CCN(Cc4ccccc4)CC3)cnc12 [Ex. 3] was tested. Which “Bradykinin-induced writhing, % inhibition at 30 mg/kg i.p.” value [2] did it give?
**A.** 20%

**Q.** What about the pIC50 [1] of the same compound?
**A.** 7.03

**Q.** CCN(CCN(C)C)C(=O)c1cnc2c(OC)cccc2c1Nc1ccc(C(=O)NC2CCN(Cc3ccccc3)CC2)cc1 [Ex. 5, N-[2-(Dimethylamino)ethyl]-N-ethyl-8-methoxy-4-[[4-[[[1-(phenylmethyl)-4-piperidinyl]amino]carbonyl]phenyl]amino]-3-quinolinecarboxamide] was tested. Which pIC50 [1] did it give?
**A.** 5.54

**Q.** CCN(CC)C(=O)c1cccc(CN2CCC(NC(=O)c3cnc4c(OC)cccc4c3Nc3ccc(C(=O)NC4CCN(Cc5ccccc5)CC4)cc3)CC2)c1 [Ex. 11] was tested. Which pIC50 [1] did it give?
**A.** 5.80

**Q.** For CC(C(=O)O)c1cccc(C(=O)c2ccccc2)c1 (stereo not drawn) [Ketoprofen], which “Bradykinin-induced writhing, % inhibition” value ([2]; 100 mg/kg p.o.) is on record?
**A.** 52%

**Q.** Which results are given for CCCCN1CCC(NC(=O)c2cnc3c(OC)cccc3c2Nc2ccc(C(=O)NC3CCN(Cc4ccccc4)CC3)cc2)CC1 [Ex. 8, N-(1-Butyl-4-piperidinyl)-8-methoxy-4-[[4-[[[1-(phenylmethyl) -4-piperidinyl]amino]carbonyl]phenyl]amino]-3-quinolinecarboxamide]?
**A.** Bradykinin-induced writhing, % inhibition at 30 mg/kg i.p. [2]: 32%; pIC50 [1]: 5.92

**Q.** With CCCCN1CCC(NC(=O)c2ccc(Nc3c(C(=O)NC4CCN(Cc5ccccc5)CC4)cnc4c(OC)cccc34)cc2)CC1 [Ex. 13, 4-[[4-[[(1-Butyl-4-piperidinyl)amino]carbonyl]phenyl]amino]-8-methoxy-N-[1-(phenylmethyl)-4-piperidinyl]-3-quinoinecarboxamide] as the compound, how does the pIC50 [1] read?
**A.** 5.54

**Q.** With CN1CC[C@]23c4c5ccc(O)c4O[C@H]2[C@@H](O)C=C[C@H]3[C@H]1C5 [Morphine] as the compound, how does the ED50 ([2]; Mus musculus, po, read-out: Bradykinin-induced writhing, ED50) read?
**A.** 4.5 mg/kg

**Q.** CCN(CC)C(=O)CCCCCN1CCC(N(Cc2ccc(Nc3c(C(=O)NC4CCN(Cc5ccccc5)CC4)cnc4c(OC)cccc34)cc2)C(=O)CCC2CCCC2)CC1 [Ex. 6] was tested. Which pIC50 [1] did it give?
**A.** 5.84

**Q.** For CC(C)Cc1ccc(C(C)C(=O)O)cc1 (stereo not drawn) [Ibuprofen], which “Bradykinin-induced writhing, % inhibition” value ([2]; 200 mg/kg p.o.) is on record?
**A.** 43%

**Q.** With O=C(NC1CCN(Cc2ccccc2)CC1)c1ccc(Nc2c(C(=O)NC3CCN(Cc4ccccc4)CC3)cnc3cc(Cl)ccc23)cc1 [Ex. 17, 7-Chloro-N-[1-(phenylmethyl)-4-piperidinyl]-4-[[4-[[[1-(phenylmethyl)-4-piperidinyl]amino]carbonyl]phenyl]amino]-3-quinolinecarboxamide] as the compound, how does the pIC50 [1] read?
**A.** 6.37

**Q.** With COc1cccc2c(Nc3ccc(C(=O)NC4CCN(Cc5ccccc5)CC4)cc3)c(C(=O)NCCN(C)C)cnc12 [Ex. 4, N-[2-(Dimethylamino)ethyl]-8-methoxy-4-[[4-[[[1-(phenylmethyl) -4-piperidinyl]amino]carbonyl]phenyl]amino]-3-quinolinecarboxamide trifluoroacetate (1:4)] as the compound, how does the pIC50 [1] read?
**A.** 5.57

**Q.** COc1cccc(CN2CCC(NC(=O)c3cnc4c(OC)cccc4c3Nc3ccc(C(=O)NC4CCN(Cc5ccccc5)CC4)cc3)CC2)c1 [Ex. 15, N-[1-[(3-Methoxyphenyl)methyl]-4-piperidinyl]-8-methoxy-4-[[4-[[[1-(phenylmethyl)-4-piperidinyl]amino]carbonyl]phenyl]amino]-3-quinoline-carboxamide] was tested. Which pIC50 [1] did it give?
**A.** 6.66
